One assay addresses Mcl-1/Bim interaction (Homo sapiens (Human), UniProt Q07820). The assay is described as follows: Cell Free Mcl-1: Bim Affinity Assay (Mcl-1 HTRF). It is filed as binding. Particulars: TR-FRET, recombinant human Mcl-1(171-327), biotin-Bim(51-76); read-out: Mel-1 HTRF IC50. A digest of the protocol: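 TR-FRET competition assay: 0.1 nM His-tagged human Mcl-1(171-327) and 0.05 nM biotin-Bim(51-76) were pre-incubated 60 min with compound in 20 mM Hepes pH 7.5, 150 mM NaCl, Brij35, 1 mM DTT, then with Eu-anti-His/streptavidin-Xlent overnight. The 665/620 nm ratio was fitted by four-parameter model to IC50 (duplicates).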
On the technique in general: TR-FRET usually uses a lanthanide donor and a delayed reading to cut background.

The next assay has as its system OPM-2. Nature of the assay: Cell Viability Assay (OPM-2 10 FBS). It is filed as cell-based, human. Particulars: OPM-2 cells, CellTiter-Glo, read-out: OPM-2 10% FBS IC50 IP. In outline: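 OPM-2 myeloma cells seeded at 3000 cells/well in RPMI 1640 with 10% FBS and exposed to serially diluted compounds for 16 h at 37° C., 5% CO2.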
A general note: In ATP-based viability assays light output follows the ATP content of the culture.

SMILES strings stand for the structures. pIC50: −log10 of the molar value. Where two headings read alike, the source gives them in different places.

Chain of Mcl-1/Bim interaction (Q07820 171-327): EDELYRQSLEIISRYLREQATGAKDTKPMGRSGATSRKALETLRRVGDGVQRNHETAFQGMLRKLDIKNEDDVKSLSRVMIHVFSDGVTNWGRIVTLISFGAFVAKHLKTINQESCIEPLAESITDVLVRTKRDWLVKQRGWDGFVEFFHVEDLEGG

Consider `C[C@@H]1[C@@H](C)CCC[C@@H]([C@H]2OC[C@@H](N3CCC3(C)C)CO2)[C@@H]2CC[C@H]2CN2C[C@@]3(CCCc4cc(Cl)ccc43)COc3ccc(cc32)C(=O)NS1(=O)=O` (single isomer, unassigned) [Example 63], for which the pIC50 (in general, −log10 of the IC50, conventionally taken in molar units) at Mcl-1/Bim interaction is 8.69; with OPM-2 (16 h), 5.94.
On to `C[C@@H]1[C@@H](C)CCC[C@H]([C@H]2OC[C@@H](N3CC4(COC4)C3)CO2)[C@@H]2CC[C@H]2CN2C[C@@]3(CCCc4cc(Cl)ccc43)COc3ccc(cc32)C(=O)NS1(=O)=O` (relative stereo) [Example 59], for which the results for the pIC50 on Mcl-1/Bim interaction and with OPM-2 (16 h) were 9.50 and 7.05, respectively.
Take `C[C@@H]1[C@@H](C)CCC[C@H]([C@H]2O[C@H]3CNC[C@H]3O2)[C@@H]2CC[C@H]2CN2C[C@@]3(CCCc4cc(Cl)ccc43)COc3ccc(cc32)C(=O)NS1(=O)=O` (stereo in doubt) [Example 10, (1S,3′R,6′R,7′R,11′S,12′R)-6-chloro-11′,12′-dimethyl-7′-((2r,3aR,6aS)-tetrahydro-3aH-[1,3]dioxolo[4,5-c]pyrrol-2-yl)-3,4-dihydro-2H,15′H-spiro[naphthalene-1,22′-[20]oxa[13]thia[1,14]diazatetracyclo [14.7.2.0~3,6~.0~19,24~]pentacosa[16,18,24]trien]-15′-one 13′,13′-dioxide]: the values for the pIC50 at Mcl-1/Bim interaction and in the assay with OPM-2 (16 h) were 8.90 and 5.95, respectively.
Taken in the same sequence, the figures for `C[C@@H]1[C@@H](C)CCC[C@H]([C@H]2O[C@H]3CNC[C@H]3O2)[C@@H]2CC[C@H]2CN2C[C@@]3(CCCc4cc(Cl)ccc43)COc3ccc(cc32)C(=O)NS1(=O)=O` (stereo in doubt) [Example 15, (1S,3′R,6′R,7′R,11′S,12′R)-6-chloro-11′,12′-dimethyl-7′-((2r,3aR,6aS)-tetrahydro-3aH-[1,3]dioxolo[4,5-c]pyrrol-2-yl)-3,4-dihydro-2H,15′H-spiro[naphthalene-1,22′-[20]oxa[13]thia[1,14]diazatetracyclo [14.7.2.0~3,6~.0~19,24~]pentacosa[16,18,24]trien]-15′-one 13′,13′-dioxide] were 9.12 and 6.20.
Take `CC[C@@H]1CCCC[C@H]([C@H]2OC[C@@H](N(C)C)CO2)C2CC[C@H]2CN2C[C@@]3(CCCc4cc(Cl)ccc43)COc3ccc(cc32)C(=O)NS1(=O)=O` (stereo in doubt) [Example 74, (1S,3′R,6′S,7′S,12′R)-6-chloro-7′-(cis-5-(dimethylamino)-1,3-dioxan-2-yl)-12′-ethyl-3,4-dihydro-2H,15′H-spiro[naphthalene-1,22′-[20]oxa[13]thia[1,14]diazatetracyclo [14.7.2.0~3,6~.0~19,24~]pentacosa[16,18,24]trien]-15′-one 13′,13′-dioxide]: the pIC50 was 9.71 on Mcl-1/Bim interaction and 6.97 with OPM-2 (16 h).
`C[C@@H]1CC[C@H]([C@H]2OC[C@@H](N(C)C)CO2)[C@@H]2CC[C@H]2CN2C[C@@]3(CCCc4cc(Cl)ccc43)COc3ccc(cc32)C(=O)NS(=O)(=O)C[C@@H]1C` [Example 76, (1S,3′R,6′R,7′S,10′R,11′R)-6-chloro-7′-(cis-5-(dimethylamino)-1,3-dioxan-2-yl)-10′,11′-dimethyl-3,4-dihydro-2H,15′H-spiro[naphthalene-1,22′-[20]oxa[13]thia[1,14]diazatetracyclo [14.7.2.0~3,6~.0~19,24~]pentacosa[16,18,24]trien]-15′-one 13′,13′-dioxide]: the pIC50 at Mcl-1/Bim interaction was 8.21; with OPM-2 (16 h), 5.61.
Taken in the same sequence, the figures for `CO[C@H]1CO[C@@H]([C@@H]2CCC[C@H](C)[C@@H](C)S(=O)(=O)NC(=O)c3ccc4c(c3)N(C[C@@H]3CC[C@H]32)C[C@@]2(CCCc3cc(Cl)ccc32)CO4)OC1` (single isomer, unassigned) [Example 25] were 9.33 and 6.04.
For the molecule `C[C@@H]1[C@@H](C)CCC[C@H](C2OCCCO2)[C@@H]2CC[C@H]2CN2C[C@@]3(CCCc4cc(Cl)ccc43)COc3ccc(cc32)C(=O)NS1(=O)=O` [Example 7, (1S,3′R,6′R,7′S,11′S,12′R)-6-chloro-7′-(1,3-dioxan-2-yl)-11′,12′-dimethyl-3,4-dihydro-2H,15′H-spiro[naphthalene-1,22′-[20]oxa[13]thia[1,14]diazatetracyclo [14.7.2.0~3,6~.0~19,24~]pentacosa[16,18,24]trien]-15′-one 13′,13′-dioxide], the pIC50 is 9.02 at Mcl-1/Bim interaction and 5.97 in the assay with OPM-2 (16 h).
In the case of `CC(=O)N(C)[C@H]1CO[C@@H]([C@H]2CCC[C@H](C)[C@@H](C)S(=O)(=O)NC(=O)c3ccc4c(c3)N(C[C@@H]3CC[C@H]32)C[C@@]2(CCCc3cc(Cl)ccc32)CO4)OC1` [Example 47, N-(cis-2-((1S,3′R,6′R,7′S,11′S,12′R)-6-chloro-11′,12′-dimethyl-13′,13′-dioxido-15′-oxo-3,4-dihydro-2H-spiro[naphthalene-1,22′-[20]oxa[13]thia[1,14]diazatetracyclo [14.7.2.0~3,6~.0~19,24~]pentacosa[16,18,24]trien]-7′-yl)-1,3-dioxan-5-yl)-N-methylacetamide], the pIC50 on Mcl-1/Bim interaction was 9.25; with OPM-2 (Homo sapiens, OPM-2, 16 h) it was 6.26.
As to `C[C@@H]1[C@@H](C)CCC[C@H]([C@H]2OC[C@@H](N3CCCC3)CO2)[C@@H]2CC[C@H]2CN2C[C@@]3(CCCc4cc(Cl)ccc43)COc3ccc(cc32)C(=O)NS1(=O)=O` [Example 19, (1S,3′R,6′R,7′S,11′S,12′R)-6-chloro-11′,12′-dimethyl-7′-(cis-5-(1-pyrrolidinyl)-1,3-dioxan-2-yl)-3,4-dihydro-2H,15′H-spiro[naphthalene-1,22′-[20]oxa[13]thia[1,14]diazatetracyclo [14.7.2.0~3,6~.0~19,24~]pentacosa[16,18,24]trien]-15′-one 13′,13′-dioxide], the pIC50 is 8.98 at Mcl-1/Bim interaction and 6.28 in the assay with OPM-2 (16 h).
Taken in the same sequence, the figures for `COC[C@H]1[C@@H](C)CCC[C@H]([C@H]2OC[C@@H](N(C)C)CO2)[C@@H]2CC[C@H]2CN2C[C@@]3(CCCc4cc(Cl)ccc43)COc3ccc(cc32)C(=O)NS1(=O)=O` [Example 87, (1S,3′R,6′R,7′S,11′S,12′R)-6-chloro-7′-(cis-5-(dimethylamino)-1,3-dioxan-2-yl)-12′-(methoxymethyl)-11′-methyl-3,4-dihydro-2H,15′H-spiro[naphthalene-1,22′-[20]oxa[13]thia[1,14]diazatetracyclo [14.7.2.0~3,6~.0~19,24~]pentacosa[16,18,24]trien]-15′-one 13′,13′-dioxide] were 8.24 and 6.13.
For the molecule `C[C@@H]1[C@@H](C)CCC[C@H]([C@H]2O[C@H]3CN(C)C[C@H]3O2)[C@@H]2CC[C@H]2CN2C[C@@]3(CCCc4cc(Cl)ccc43)COc3ccc(cc32)C(=O)NS1(=O)=O` (stereo in doubt) [Example 24, (1S,3′R,6′R,7′R,11′S,12′R)-6-chloro-11′,12′-dimethyl-7′-((2r,3aR,6aS)-5-methyltetrahydro-3aH-[1,3]dioxolo[4,5-c]pyrrol-2-yl)-3,4-dihydro-2H,15′H-spiro[naphthalene-1,22′-[20]oxa[13]thia[1,14]diazatetracyclo [14.7.2.0~3,6~.0~19,24~]pentacosa[16,18,24]trien]-15′-one 13′,13′-dioxide], the pIC50 at Mcl-1/Bim interaction is 9.15; in the assay on OPM-2 (Homo sapiens, OPM-2, 16 h) it was 6.27.
For the molecule `C[C@@H]1[C@@H](C)CCC[C@@H]([C@H]2OC[C@@H](N3CC(O)C3)CO2)[C@@H]2CC[C@H]2CN2C[C@@]3(CCCc4cc(Cl)ccc43)COc3ccc(cc32)C(=O)NS1(=O)=O` (single isomer, unassigned) [Example 62], the figures for the pIC50 at Mcl-1/Bim interaction and in the assay with OPM-2 (16 h) were 8.68 and 5.35, respectively.
Taken in the same sequence, the figures for `C[C@@H]1CC[C@H]([C@H]2OC[C@@H](N(C)C)CO2)[C@@H]2CC[C@H]2CN2C[C@@]3(CCCc4cc(Cl)ccc43)COc3ccc(cc32)C(=O)NS(=O)(=O)C[C@@H]1C` [Example 75, (1S,3′R,6′R,7′S,10′R,11′R)-6-chloro-7′-(cis-5-(dimethylamino)-1,3-dioxan-2-yl)-10′,11′-dimethyl-3,4-dihydro-2H,15′H-spiro[naphthalene-1,22′-[20]oxa[13]thia[1,14]diazatetracyclo [14.7.2.0~3,6~.0~19,24~]pentacosa[16,18,24]trien]-15′-one 13′,13′-dioxide] were 7.89 and 5.17.
Take `C[C@@H]1[C@@H](C)CCC[C@@H]([C@H]2OC[C@H](N(C)C)CO2)[C@@H]2CC[C@H]2CN2C[C@@]3(CCCc4cc(Cl)ccc43)COc3ccc(cc32)C(=O)NS1(=O)=O` (relative stereo) [Example 6, (1S,3′R,6′R,7′R,11′S,12′R)-6-CHLORO-7′-(TRANS-5-(DIMETHYLAMINO)-1,3-DIOXAN-2-YL)-11′,12′-DIMETHYL-3,4-DIHYDRO-2H,15′H-SPIRO[NAPHTHALENE-1,22′-[20]OXA[13]THIA[1,14]DIAZATETRACYCLO[14.7.2.0˜3,6˜.0˜19,24˜]PENTACOSA[16,18,24]TRIEN]-15′-ONE 13′,13′-DIOXIDE]: the pIC50 at Mcl-1/Bim interaction is 8.68; in the assay on OPM-2 (Homo sapiens, OPM-2, 16 h) it was 6.25.
As to `C[C@H]1CCC[C@H]([C@H]2OC[C@@H](N(C)C)CO2)[C@@H]2CC[C@H]2CN2C[C@@]3(CCCc4cc(Cl)ccc43)COc3ccc(cc32)C(=O)NS(=O)(=O)C1` (stereo in doubt) [Example 78], the pIC50 at Mcl-1/Bim interaction is 8.55; in the assay on OPM-2 (16 h), 6.22.
Turning to `C[C@@H]1[C@@H](C)CCC[C@@H]([C@H]2OC[C@@H](CN(C)C)O2)[C@@H]2CC[C@H]2CN2C[C@@]3(CCCc4cc(Cl)ccc43)COc3ccc(cc32)C(=O)NS1(=O)=O` (single isomer, unassigned) [Example 29], the pIC50 was 9.08 on Mcl-1/Bim interaction and 6.50 with OPM-2 (16 h).

(Values after US11364248B2 (AMGEN INC., priority 2017, dated 2022).)
